Assay results published in US20050192340A1, “Simvastatin formulations and methods of making same” (priority 2003, published 2005).

Assay: In vitro hydrolysis of simvastatin formulations under simulated gastric conditions (dissolution in 0.1N HCl, HPLC)
Format: physicochemical
Settings: 37° C.
Procedure: Generally, the simvastatin formulations were prepared by heating menthol to about 60° C. while stirring and adding a surface active agent (either TWEEN® or Poloxamer) and sodium ducosate or sodium lauryl sulfate. The mixture was stirred until all the components dissolved to form a melt. Thereafter, the melt was cooled to about 50° C., simvastatin was added during stirring until dissolved, the mixture was cooled to room temperature, and dispensed into capsules. After about an hour the liquid in the capsule had gelled. Each capsule was filled with enough formulation to have a dose of 20 mg of simvastatin.
Each formulation was tested by dissolution in 50 ml of 0.1N HCl at 37° C. with stirring. […] It was determined that the retention times for the simvastatin hydroxyl acid was 3.6 minutes and simvastatin lactone was 5.7 minutes.

CCC(C)(C)C(=O)O[C@H]1C[C@@H](C)C=C2C=C[C@H](C)[C@H](CCC3C[C@@H](O)CC(=O)O3)[C@H]21 (stereo partly drawn) [Simvastatin 100%]
0%: % hydrolyzed Simvastatin (0.1N HCl, 60 min, weight % hydrolyzed simvastatin from the initial simvastatin amount) | % converted to hydroxyl acid (0.1N HCl, 60 min, weight % of the total dissolved simvastatin in the open hydroxy acid form) | % Dissolved 60 min 0.1 N HCl (50 ml 0.1N HCl, stirring, total dissolved simvastatin (closed lactone + open hydroxy acid form), 20 mg capsule)
